Assay results taken from ChEMBL document CHEMBL3885861, “Open TG-GATES”.

Organism: Rattus norvegicus
Assay: Open TG-GATES - Regimen: Single
Type: toxicity, organism-based, Sprague-Dawley
Design: regimen Single, gender Male, age 6 weeks
Details: in vivo, iv, 0 mg/kg, route intravenous injection, dose level Control; for APTT / Bas / Eos / Fbg / Hb / Ht / Lym / MCH / MCHC / MCV / Mono / Neu / PT / Plat / RBC / Ret / WBC: tissue Blood; for KIDNEY_L / KIDNEY_R / KIDNEY_TOTAL: tissue Kidney; for LIVER: tissue Liver; for A/G / ALP / ALT / AST / BUN / CRE / Ca / Cl / DBIL / GLC / IP / K / LDH / Na / PL / RALB / TBIL / TC / TG / TP / gamma-GTP: tissue Plasma

C[C@@H]1C[C@@H]([C@H](O)CC2CC(=O)NC(=O)C2)C(=O)[C@@H](C)C1 [CYCLOHEXIMIDE]
TERMINAL_BW (3 h): 221.4 g
APTT (3 h): 21.8 s
Bas (3 h): 0%
Eos (3 h): 1%
Fbg (3 h): 315.6 mg/dL
Hb (3 h): 13.1 g/dL
Ht (3 h): 39.2%
Lym (3 h): 75.6%
MCH (3 h): 21.3 pg
MCHC (3 h): 33.3%
MCV (3 h): 64 fL
Mono (3 h): 2.8%
Neu (3 h): 19.4%
PT (3 h): 16.2 s
Plat (3 h): 120.1 x10_4/uL
RBC (3 h): 612.2 x10_4/ul
Ret (3 h): 8.7%
WBC (3 h): 95.6 x10_2/uL
KIDNEY_L (3 h): 1 g
KIDNEY_R (3 h): 1 g
KIDNEY_TOTAL (3 h): 2 g
LIVER (3 h): 10.2 g
A/G (3 h): 1.2
ALP (3 h): 1480.4 IU/L
ALT (3 h): 44.4 IU/L
AST (3 h): 75.4 IU/L
BUN (3 h): 11.4 mg/dL
CRE (3 h): 0.1 mg/dL
Ca (3 h): 10.4 mg/dL
Cl (3 h): 106.8 meq/L
DBIL (3 h): 0.004 mg/dL
GLC (3 h): 187 mg/dL
IP (3 h): 9.1 mg/dL
K (3 h): 4 meq/L
LDH (3 h): 171.8 IU/L
Na (3 h): 141 meq/L
PL (3 h): 130.8 mg/dL
RALB (3 h): 2.9 g/dL
TBIL (3 h): 0.024 mg/dL
TC (3 h): 76.8 mg/dL
TG (3 h): 49.2 mg/dL
TP (3 h): 5.2 g/dL
gamma-GTP (3 h): 1.4 IU/L
TERMINAL_BW (6 h): 214.4 g
APTT (6 h): 22.6 s
Bas (6 h): 0%
Eos (6 h): 1%
Fbg (6 h): 314.4 mg/dL
Hb (6 h): 13.4 g/dL
Ht (6 h): 39.9%
Lym (6 h): 78.2%
MCH (6 h): 21.4 pg
MCHC (6 h): 33.6%
MCV (6 h): 64 fL
Mono (6 h): 2.8%
Neu (6 h): 17.2%
PT (6 h): 15.5 s
Plat (6 h): 113.8 x10_4/uL
RBC (6 h): 624 x10_4/ul
Ret (6 h): 8.7%
WBC (6 h): 88.7 x10_2/uL
KIDNEY_L (6 h): 1 g
KIDNEY_R (6 h): 1 g
KIDNEY_TOTAL (6 h): 2 g
LIVER (6 h): 9.4 g
A/G (6 h): 1.3
ALP (6 h): 1423 IU/L
ALT (6 h): 38.6 IU/L
AST (6 h): 71.6 IU/L
BUN (6 h): 10 mg/dL
CRE (6 h): 0.1 mg/dL
Ca (6 h): 10.5 mg/dL
Cl (6 h): 107.2 meq/L
DBIL (6 h): 0.002 mg/dL
GLC (6 h): 177 mg/dL
IP (6 h): 9.2 mg/dL
K (6 h): 4.2 meq/L
LDH (6 h): 198.8 IU/L
Na (6 h): 140.8 meq/L
PL (6 h): 139.6 mg/dL
RALB (6 h): 2.9 g/dL
TBIL (6 h): 0.036 mg/dL
TC (6 h): 78.6 mg/dL
TG (6 h): 52 mg/dL
TP (6 h): 5.2 g/dL
gamma-GTP (6 h): 1.2 IU/L
TERMINAL_BW (9 h): 215.8 g
APTT (9 h): 23.2 s
Bas (9 h): 0%
Eos (9 h): 0.6%
Fbg (9 h): 313.4 mg/dL
Hb (9 h): 12.9 g/dL
Ht (9 h): 38.5%
Lym (9 h): 78.8%
MCH (9 h): 20.8 pg
MCHC (9 h): 33.4%
MCV (9 h): 62.2 fL
Mono (9 h): 2%
Neu (9 h): 17.8%
PT (9 h): 15.8 s
Plat (9 h): 109.2 x10_4/uL
RBC (9 h): 620.6 x10_4/ul
Ret (9 h): 8.1%
WBC (9 h): 65.1 x10_2/uL
KIDNEY_L (9 h): 1 g
KIDNEY_R (9 h): 1 g
KIDNEY_TOTAL (9 h): 2 g
LIVER (9 h): 9 g
A/G (9 h): 1.3
ALP (9 h): 1329.2 IU/L
ALT (9 h): 37.4 IU/L
AST (9 h): 71 IU/L
BUN (9 h): 10 mg/dL
CRE (9 h): 0.1 mg/dL
Ca (9 h): 10.4 mg/dL
Cl (9 h): 106.4 meq/L
DBIL (9 h): 0.002 mg/dL
GLC (9 h): 176 mg/dL
IP (9 h): 9.7 mg/dL
K (9 h): 3.9 meq/L
LDH (9 h): 164.6 IU/L
Na (9 h): 142.4 meq/L
PL (9 h): 125.8 mg/dL
RALB (9 h): 3 g/dL
TBIL (9 h): 0.036 mg/dL
TC (9 h): 72.4 mg/dL
TG (9 h): 37.6 mg/dL
TP (9 h): 5.4 g/dL
gamma-GTP (9 h): 1.4 IU/L
TERMINAL_BW (24 h): 229.3 g
APTT (24 h): 22.3 s
Bas (24 h): 0%
Eos (24 h): 1%
Fbg (24 h): 319.8 mg/dL
Hb (24 h): 13.5 g/dL
Ht (24 h): 40.3%
Lym (24 h): 80.6%
MCH (24 h): 21 pg
MCHC (24 h): 33.5%
MCV (24 h): 62.5 fL
Mono (24 h): 2.8%
Neu (24 h): 14.6%
PT (24 h): 16 s
Plat (24 h): 119 x10_4/uL
RBC (24 h): 643.8 x10_4/ul
Ret (24 h): 8.7%
WBC (24 h): 90.5 x10_2/uL
KIDNEY_L (24 h): 1 g
KIDNEY_R (24 h): 1 g
KIDNEY_TOTAL (24 h): 2 g
LIVER (24 h): 11 g
A/G (24 h): 1.2
ALP (24 h): 1510.6 IU/L
ALT (24 h): 38.2 IU/L
AST (24 h): 65.8 IU/L
BUN (24 h): 16 mg/dL
CRE (24 h): 0.1 mg/dL
Ca (24 h): 10.8 mg/dL
Cl (24 h): 106 meq/L
DBIL (24 h): 0 mg/dL
GLC (24 h): 202.2 mg/dL
IP (24 h): 7.7 mg/dL
K (24 h): 4.2 meq/L
LDH (24 h): 179.2 IU/L
Na (24 h): 140.4 meq/L
PL (24 h): 142.8 mg/dL
RALB (24 h): 3 g/dL
